Test results taken from patent US20240116912A1, “COMPOUNDS AND METHODS FOR MODULATING FXR” (Terns Pharmaceuticals, Inc., priority 2020, published 2024).
pEC50: −log10 of the molar value.

Tests used:
[1] = molecular target: full length human FXR protein (Homo sapiens (Human), UniProt Q96RI1); assay: FXR cellular assay (FXR-SRCP β-gal enzyme fragment complementation in CHO-K1 cells, chemiluminescence); type: cell-based; conditions: CHO-K1 cells with SRCP-EA and ProLink-labeled FXR, 0-10 micromolar compound, 37° C. for 6h, read-out: EC50 FXR-cell Luminescence/
Text: A cell based FXR assay was used to detect protein-protein interactions between an activated (ligand-bound), full length human FXR protein and a nuclear fusion protein containing a Steroid Receptor Coactivator Peptide (SCRP) domain. In this approach, two weakly complementing fragments of the 3-gal enzyme were expressed within stably transfected Chinese Hamster Ovary (CHO-K1) cells. The complementing fragments of the 3-gal enzyme (ProLink, PK; and Enzyme Acceptor, EA) were translationally fused to the C-terminus of a full-length FXR and to the SRCP, respectively. Complementation was driven by the protein-protein interaction between SRCP-EA and a ProLink-labeled FXR. Upon FXR-SRCP binding, the two fragments of 3-gal complement, forming a functional enzyme capable of hydrolyzing a substrate molecule and generating a chemiluminescent signal.
CHO-K1 cells containing SRCP-EA and ProLink-labeled FXR were plated in 384-well microplates and incubated at 37° C. overnight. A positive control FXR agonist, GW4064 (0-10 micromolar), or test compounds (0-10 micromolar) were added to plated cells and incubated at 37° C. for 6h (final DMSO vehicle concentration was 1%). The assay signal was generated by addition of 50% (v/v) detection reagent (19:5:1, cell assay buffer: substrate reagent 1: substrate reagent 2, DiscoverX) followed by incubation for 1h at ambient room temperature. Microplates were analyzed using an Envision reader (PerkinElmer Life and Analytical Sciences, Signal=chemiluminescence).

[2] = molecular target: ligand binding domain (LBD) of recombinant human FXR (Homo sapiens (Human), UniProt Q96RI1); assay: FXR cell free coactivator (SRC-1) recruitment assay, TR-FRET; conditions: FXR LBD (amino acids 244-476) with labeled SRC-1 domain, 25° C. for 60 minutes, activity relative to CDCA maximum; read-out: EC50 FXR- Biochemical TR-FRET/μM
Procedure: A cell free coactivator recruitment assay was developed for FXR, to measure the functional potency of novel FXR compounds. In this assay, novel FXR compounds were bound to the ligand binding domain (LBD) of recombinant human FXR. The ability of this liganded homodimeric complex to recruit the co-activator protein steroid receptor coactivator 1 (SRC-1) was measured using Time-Resolved Fluorescence Resonance Energy Transfer (TR-FRET).
The LBD of human FXR (amino acids 244-476) was cloned into an expression vector for protein expression in SF9 insect cells. Purified FXR LBD was incubated in TR-FRET coregulator buffer G (Eurofins) with test compounds (0-10 micromolar) and a labeled nuclear receptor interaction domain of SRC-1 at 25° C. for 60 minutes (final DMSO vehicle concentration was 1.2%). Assays were analyzed using an Envision TR-FRET reader (PerkinElmer Life and Analytical Sciences). Compound activity at each concentration was defined as a percentage of the maximal activity of the natural FXR ligand agonist chenodeoxycholic acid (CDCA) generating a dose response curve.

Sequence of full length human FXR protein (Q96RI1 whole entry, the tested form may be a part): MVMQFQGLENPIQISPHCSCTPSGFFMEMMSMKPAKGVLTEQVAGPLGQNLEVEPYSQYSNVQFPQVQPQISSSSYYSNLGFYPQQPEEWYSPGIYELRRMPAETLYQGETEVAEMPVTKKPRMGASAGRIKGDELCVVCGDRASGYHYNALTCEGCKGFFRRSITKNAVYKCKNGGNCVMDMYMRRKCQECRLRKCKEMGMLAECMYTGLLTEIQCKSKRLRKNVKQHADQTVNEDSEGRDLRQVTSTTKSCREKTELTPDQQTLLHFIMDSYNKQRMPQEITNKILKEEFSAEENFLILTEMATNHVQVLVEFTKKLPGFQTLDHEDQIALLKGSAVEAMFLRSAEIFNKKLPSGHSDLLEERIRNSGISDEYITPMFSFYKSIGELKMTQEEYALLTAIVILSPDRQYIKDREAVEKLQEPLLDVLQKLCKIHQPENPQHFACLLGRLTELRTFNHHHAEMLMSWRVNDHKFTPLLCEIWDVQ
Sequence of ligand binding domain (LBD) of recombinant human FXR (Q96RI1 254-486): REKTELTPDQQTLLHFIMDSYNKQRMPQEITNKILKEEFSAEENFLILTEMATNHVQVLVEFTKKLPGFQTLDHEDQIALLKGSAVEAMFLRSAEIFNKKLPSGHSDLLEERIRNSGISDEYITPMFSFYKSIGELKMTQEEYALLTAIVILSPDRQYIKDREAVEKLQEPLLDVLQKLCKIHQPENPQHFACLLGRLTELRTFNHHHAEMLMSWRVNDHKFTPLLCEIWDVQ
Sequence of ligand binding domain (LBD) of recombinant human FXR (Q15788 whole entry partner, the tested form may be a part): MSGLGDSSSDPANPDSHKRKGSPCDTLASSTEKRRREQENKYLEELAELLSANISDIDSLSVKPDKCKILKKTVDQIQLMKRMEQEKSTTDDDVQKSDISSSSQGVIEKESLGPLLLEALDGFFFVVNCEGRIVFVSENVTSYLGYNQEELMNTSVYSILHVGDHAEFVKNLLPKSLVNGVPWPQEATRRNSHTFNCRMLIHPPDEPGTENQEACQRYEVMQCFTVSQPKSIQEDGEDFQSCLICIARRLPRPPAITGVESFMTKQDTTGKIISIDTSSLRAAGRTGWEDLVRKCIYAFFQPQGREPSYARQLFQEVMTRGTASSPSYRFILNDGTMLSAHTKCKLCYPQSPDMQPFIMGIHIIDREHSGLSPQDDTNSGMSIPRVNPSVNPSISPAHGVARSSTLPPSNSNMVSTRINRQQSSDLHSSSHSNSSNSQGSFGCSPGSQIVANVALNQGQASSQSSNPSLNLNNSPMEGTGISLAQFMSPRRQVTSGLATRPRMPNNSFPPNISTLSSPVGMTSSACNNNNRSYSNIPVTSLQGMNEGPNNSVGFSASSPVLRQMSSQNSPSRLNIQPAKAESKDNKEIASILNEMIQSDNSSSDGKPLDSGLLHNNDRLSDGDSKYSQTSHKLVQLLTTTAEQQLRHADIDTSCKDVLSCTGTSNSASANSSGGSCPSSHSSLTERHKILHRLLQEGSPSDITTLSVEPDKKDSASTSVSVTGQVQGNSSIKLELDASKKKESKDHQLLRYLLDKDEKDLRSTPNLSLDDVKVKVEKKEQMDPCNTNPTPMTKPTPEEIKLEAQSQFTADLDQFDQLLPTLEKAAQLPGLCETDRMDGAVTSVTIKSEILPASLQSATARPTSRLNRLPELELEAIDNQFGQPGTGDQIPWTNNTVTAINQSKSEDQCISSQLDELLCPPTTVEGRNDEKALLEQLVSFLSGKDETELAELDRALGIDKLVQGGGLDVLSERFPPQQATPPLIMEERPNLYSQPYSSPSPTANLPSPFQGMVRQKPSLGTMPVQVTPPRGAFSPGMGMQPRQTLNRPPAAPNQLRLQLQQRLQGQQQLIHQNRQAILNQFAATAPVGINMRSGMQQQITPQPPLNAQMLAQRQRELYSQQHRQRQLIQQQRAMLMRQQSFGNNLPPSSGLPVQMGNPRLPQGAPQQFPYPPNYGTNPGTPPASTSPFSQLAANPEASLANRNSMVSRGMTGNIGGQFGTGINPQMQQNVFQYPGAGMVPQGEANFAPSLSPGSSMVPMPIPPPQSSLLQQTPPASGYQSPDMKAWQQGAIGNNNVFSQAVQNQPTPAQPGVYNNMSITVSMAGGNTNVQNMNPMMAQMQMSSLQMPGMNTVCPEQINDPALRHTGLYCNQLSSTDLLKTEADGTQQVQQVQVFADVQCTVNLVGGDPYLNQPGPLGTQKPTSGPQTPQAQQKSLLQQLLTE

SMILES | pEC50 [1] | EC50 [2]
O=c1[nH]c(-c2cnc(N3CCC(OCc4c(-c5c(Cl)cccc5Cl)noc4C4CC4)CC3)nc2)no1 [Example 5, 3-(2-(4-((5-cyclopropyl-3-(2,6-dichlorophenyl)isoxazol-4-yl)methoxy)piperidin-1-yl)pyrimidin-5-yl)-1,2,4-oxadiazol-5(4H)-one] | 5.60 | 0.031 µM
O=c1[nH]c(-c2ccc(N3CCC(OCc4c(-c5c(Cl)cccc5Cl)noc4C4CC4)CC3)nc2)no1 [Example 6, 3-(6-(4-((5-cyclopropyl-3-(2,6-dichlorophenyl)isoxazol-4-yl)methoxy)piperidin-1-yl)pyridin-3-yl)-1,2,4-oxadiazol-5(4H)-one] | 6.43 | 0.0044 µM
O=c1[nH]c(-c2cccc(N3CCC(OCc4c(-c5c(Cl)cccc5Cl)noc4C4CC4)CC3)c2)no1 [Example 7, 3-(3-(4-((5-cyclopropyl-3-(2,6-dichlorophenyl)isoxazol-4-yl)methoxy)piperidin-1-yl)phenyl)-1,2,4-oxadiazol-5(4H)-one] | 5.91 | 0.105 µM
O=c1[nH]c(-c2ncc(N3CCC(OCc4c(-c5c(Cl)cccc5Cl)noc4C4CC4)CC3)cn2)no1 [Example 8, 3-(5-(4-((5-cyclopropyl-3-(2,6-dichlorophenyl)isoxazol-4-yl)methoxy)piperidin-1-yl)pyrimidin-2-yl)-1,2,4-oxadiazol-5(4H)-one] | 5.68 | 0.0281 µM
O=c1[nH]c(-c2ccc(N3CCC(OCc4c(-c5c(Cl)cccc5Cl)noc4C4CC4)CC3)cn2)no1 [Example 9, 3-(5-(4-((5-cyclopropyl-3-(2,6-dichlorophenyl)isoxazol-4-yl)methoxy)piperidin-1-yl)pyridin-2-yl)-1,2,4-oxadiazol-5(4H)-one] | 5.80 | 0.175 µM
O=c1[nH]nc(-c2ccc(N3CCC(OCc4c(-c5c(Cl)cccc5Cl)noc4C4CC4)CC3)cc2)c(=O)[nH]1 [Example 10, 6-(4-(4-((5-cyclopropyl-3-(2,6-dichlorophenyl)isoxazol-4-yl)methoxy)piperidin-1-yl)phenyl)-1,2,4-triazine-3,5(2H,4H)-dione] | 6.39 | 0.0091 µM
Cc1cc(N2CCC(OCc3c(-c4c(Cl)cccc4Cl)noc3C3CC3)CC2)ccc1-c1noc(=O)[nH]1 [Example 11, 3-(4-(4-((5-cyclopropyl-3-(2,6-dichlorophenyl)isoxazol-4-yl)methoxy)piperidin-1-yl)-2-methylphenyl)-1,2,4-oxadiazol-5(4H)-one] | 6.55 | 0.0219 µM
O=c1[nH]nc(-c2ccc(N3CCC(OCc4c(-c5c(Cl)cccc5Cl)noc4C4CC4)CC3)cc2)o1 [Example 12, 5-(4-(4-((5-cyclopropyl-3-(2,6-dichlorophenyl)isoxazol-4-yl)methoxy)piperidin-1-yl)phenyl)-1,3,4-oxadiazol-2(3H)-one] | 6.36 | 0.0737 µM
O=c1[nH]c(-c2ccc(N3CCC(OCc4c(-c5c(Cl)cccc5Cl)noc4C4CC4)CC3)cc2F)no1 [Example 13, 3-(4-(4-((5-cyclopropyl-3-(2,6-dichlorophenyl)isoxazol-4-yl)methoxy)piperidin-1-yl)-2-fluorophenyl)-1,2,4-oxadiazol-5(4H)-one] | 7.08 | 0.0035 µM
O=c1[nH]c(-c2ccc(N3CCC(OCc4c(-c5c(Cl)cccc5Cl)noc4C4CC4)CC3)cc2Cl)no1 [Example 14, 3-(2-chloro-4-(4-((5-cyclopropyl-3-(2,6-dichlorophenyl)isoxazol-4-yl)methoxy)piperidin-1-yl)phenyl)-1,2,4-oxadiazol-5(4H)-one] | 7.19 | 0.0085 µM
O=c1[nH]c(-c2ccc(N3CCC(OCc4c(-c5c(Cl)cccc5Cl)noc4C4CC4)C3)cc2)no1 (stereo not shown) [Example 15, 3-(4-(3-((5-cyclopropyl-3-(2,6-dichlorophenyl)isoxazol-4-yl)methoxy)pyrrolidin-1-yl)phenyl)-1,2,4-oxadiazol-5(4H)-one] | 5.26 | 0.892 µM
O=c1cc(-c2ccc(N3CCC(OCc4c(-c5c(Cl)cccc5Cl)noc4C4CC4)CC3)cc2)o[nH]1 [Example 16, 5-(4-(4-((5-cyclopropyl-3-(2,6-dichlorophenyl)isoxazol-4-yl)methoxy)piperidin-1-yl)phenyl)isoxazol-3(2H)-one] | 6.71 | 0.024 µM
O=c1cnn(-c2ccc(N3CCC(OCc4c(-c5c(Cl)cccc5Cl)noc4C4CC4)CC3)cc2)c(=O)[nH]1 [Example 17, 2-(4-(4-((5-cyclopropyl-3-(2,6-dichlorophenyl)isoxazol-4-yl)methoxy)piperidin-1-yl)phenyl)-1,2,4-triazine-3,5(2H,4H)-dione] | 5.32 | 6.07 µM
O=c1[nH]c(-c2ccc(N3CCCC(OCc4c(-c5c(Cl)cccc5Cl)noc4C4CC4)CC3)cc2)no1 (stereo not shown) [Example 18, 3-(4-(4-((5-cyclopropyl-3-(2,6-dichlorophenyl)isoxazol-4-yl)methoxy)azepan-1-yl)phenyl)-1,2,4-oxadiazol-5(4H)-one] | 7.74 | 0.0029 µM
O=c1[nH]c(-c2ccc(N3CC(OCc4c(-c5c(Cl)cccc5Cl)noc4C4CC4)C3)cc2)no1 [Example 19, 3-(4-(3-((5-cyclopropyl-3-(2,6-dichlorophenyl)isoxazol-4-yl)methoxy)azetidin-1-yl)phenyl)-1,2,4-oxadiazol-5(4H)-one] | 6.08 | 0.122 µM
C[C@H]1C[C@H](OCc2c(-c3c(Cl)cccc3Cl)noc2C2CC2)CCN1c1ccc(-c2noc(=O)[nH]2)cc1 [Example 20, 3-(4-((2S,4R)-4-((5-cyclopropyl-3-(2,6-dichlorophenyl)isoxazol-4-yl)methoxy)-2-methylpiperidin-1-yl)phenyl)-1,2,4-oxadiazol-5(4H)-one] | 6.40 | 0.114 µM
C[C@@H]1C[C@@H](OCc2c(-c3c(Cl)cccc3Cl)noc2C2CC2)CCN1c1ccc(-c2noc(=O)[nH]2)cc1 [Example 21, 3-(4-((2R,4S)-4-((5-cyclopropyl-3-(2,6-dichlorophenyl)isoxazol-4-yl)methoxy)-2-methylpiperidin-1-yl)phenyl)-1,2,4-oxadiazol-5(4H)-one] | 6.46 | 0.0793 µM
C[C@H]1C[C@@H](OCc2c(-c3c(Cl)cccc3Cl)noc2C2CC2)CCN1c1ccc(-c2noc(=O)[nH]2)cc1 [Example 22, 3-(4-((2S,4S)-4-((5-cyclopropyl-3-(2,6-dichlorophenyl)isoxazol-4-yl)methoxy)-2-methylpiperidin-1-yl)phenyl)-1,2,4-oxadiazol-5(4H)-one] | 6.38 | 0.0633 µM
C[C@@H]1C[C@H](OCc2c(-c3c(Cl)cccc3Cl)noc2C2CC2)CCN1c1ccc(-c2noc(=O)[nH]2)cc1 [Example 23, 3-(4-((2R,4R)-4-((5-cyclopropyl-3-(2,6-dichlorophenyl)isoxazol-4-yl)methoxy)-2-methylpiperidin-1-yl)phenyl)-1,2,4-oxadiazol-5(4H)-one] | 7.56 | 0.0031 µM
O=c1[nH]c(-c2ccc(N3CCC(OCc4c(-c5c(F)cccc5F)noc4C4CC4)CC3)cc2)no1 [Example 26, 3-(4-(4-((5-cyclopropyl-3-(2,6-difluorophenyl)isoxazol-4-yl)methoxy)piperidin-1-yl)phenyl)-1,2,4-oxadiazol-5(4H)-one] | 6.25 | 0.111 µM
CCOc1cccc(F)c1-c1noc(C2CC2)c1COC1CCN(c2ccc(-c3noc(=O)[nH]3)cc2)CC1 [Example 27, 3-(4-(4-((5-cyclopropyl-3-(2-ethoxy-6-fluorophenyl)isoxazol-4-yl)methoxy)piperidin-1-yl)phenyl)-1,2,4-oxadiazol-5(4H)-one] | 6.02 | 0.227 µM
COc1cccc(F)c1-c1noc(C2CC2)c1COC1CCN(c2ccc(-c3noc(=O)[nH]3)cc2)CC1 [Example 28, 3-(4-(4-((5-cyclopropyl-3-(2-fluoro-6-methoxyphenyl)isoxazol-4-yl)methoxy)piperidin-1-yl)phenyl)-1,2,4-oxadiazol-5(4H)-one] | 5.79 | 0.149 µM
O=c1[nH]c(-c2coc(N3CCC(OCc4c(-c5c(Cl)cccc5Cl)noc4C4CC4)CC3)n2)no1 [Example 29, 3-(2-(4-((5-cyclopropyl-3-(2,6-dichlorophenyl)isoxazol-4-yl)methoxy)piperidin-1-yl)oxazol-4-yl)-1,2,4-oxadiazol-5(4H)-one] | 5.50 | 0.231 µM
